The text below walks through data of paper PMC7362391, “USP30 sets a trigger threshold for PINK1–PARKIN amplification of mitochondrial ubiquitylation” (Life Science Alliance, 2020).

One assay concerns the target T1, USP30 (Homo sapiens, UniProt Q70CQ3).
T1 construct: BLI: residues 64-502Δ179-216 & 288-305 (biotinylated); activity assay: residues 57-517
T1 sequence (Q70CQ3 57-517): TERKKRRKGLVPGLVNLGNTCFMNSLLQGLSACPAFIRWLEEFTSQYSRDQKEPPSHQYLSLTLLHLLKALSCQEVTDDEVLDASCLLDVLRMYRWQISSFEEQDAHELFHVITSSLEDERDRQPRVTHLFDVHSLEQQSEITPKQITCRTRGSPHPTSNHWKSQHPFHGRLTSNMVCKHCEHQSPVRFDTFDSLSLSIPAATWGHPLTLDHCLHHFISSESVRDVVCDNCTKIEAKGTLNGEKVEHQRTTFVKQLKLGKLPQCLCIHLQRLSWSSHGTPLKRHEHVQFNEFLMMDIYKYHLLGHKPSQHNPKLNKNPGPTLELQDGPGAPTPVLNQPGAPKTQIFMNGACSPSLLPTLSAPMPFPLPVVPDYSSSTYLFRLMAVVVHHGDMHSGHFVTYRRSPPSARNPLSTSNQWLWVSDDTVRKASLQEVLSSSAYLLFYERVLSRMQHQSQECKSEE
The assay can be described thus: bio-layer interferometry (no significant off-rate); IC50 and kinact/KI with purified USP30 and ubiquitin-rhodamine; Ub-PA competition in lysate and cells. The format is biochemical. An excerpt:
bio-layer interferometry (no significant off-rate); IC50 and kinact/KI with purified USP30 and ubiquitin-rhodamine; Ub-PA competition in lysate and cells on USP30 | Bio-layer interferometry experiments show binding behaviour that is consistent with covalent modification of USP30
(In general: BLI is a label-free optical method that tracks binding on a fibre tip over time.)

Another assay concerns the target USP6 (Homo sapiens, UniProt P35125). The assay can be described thus: DUB profiler selectivity panel (Ubiquigent) at […]. The assay is classed as biochemical.

Chain of USP6 (P35125 whole entry): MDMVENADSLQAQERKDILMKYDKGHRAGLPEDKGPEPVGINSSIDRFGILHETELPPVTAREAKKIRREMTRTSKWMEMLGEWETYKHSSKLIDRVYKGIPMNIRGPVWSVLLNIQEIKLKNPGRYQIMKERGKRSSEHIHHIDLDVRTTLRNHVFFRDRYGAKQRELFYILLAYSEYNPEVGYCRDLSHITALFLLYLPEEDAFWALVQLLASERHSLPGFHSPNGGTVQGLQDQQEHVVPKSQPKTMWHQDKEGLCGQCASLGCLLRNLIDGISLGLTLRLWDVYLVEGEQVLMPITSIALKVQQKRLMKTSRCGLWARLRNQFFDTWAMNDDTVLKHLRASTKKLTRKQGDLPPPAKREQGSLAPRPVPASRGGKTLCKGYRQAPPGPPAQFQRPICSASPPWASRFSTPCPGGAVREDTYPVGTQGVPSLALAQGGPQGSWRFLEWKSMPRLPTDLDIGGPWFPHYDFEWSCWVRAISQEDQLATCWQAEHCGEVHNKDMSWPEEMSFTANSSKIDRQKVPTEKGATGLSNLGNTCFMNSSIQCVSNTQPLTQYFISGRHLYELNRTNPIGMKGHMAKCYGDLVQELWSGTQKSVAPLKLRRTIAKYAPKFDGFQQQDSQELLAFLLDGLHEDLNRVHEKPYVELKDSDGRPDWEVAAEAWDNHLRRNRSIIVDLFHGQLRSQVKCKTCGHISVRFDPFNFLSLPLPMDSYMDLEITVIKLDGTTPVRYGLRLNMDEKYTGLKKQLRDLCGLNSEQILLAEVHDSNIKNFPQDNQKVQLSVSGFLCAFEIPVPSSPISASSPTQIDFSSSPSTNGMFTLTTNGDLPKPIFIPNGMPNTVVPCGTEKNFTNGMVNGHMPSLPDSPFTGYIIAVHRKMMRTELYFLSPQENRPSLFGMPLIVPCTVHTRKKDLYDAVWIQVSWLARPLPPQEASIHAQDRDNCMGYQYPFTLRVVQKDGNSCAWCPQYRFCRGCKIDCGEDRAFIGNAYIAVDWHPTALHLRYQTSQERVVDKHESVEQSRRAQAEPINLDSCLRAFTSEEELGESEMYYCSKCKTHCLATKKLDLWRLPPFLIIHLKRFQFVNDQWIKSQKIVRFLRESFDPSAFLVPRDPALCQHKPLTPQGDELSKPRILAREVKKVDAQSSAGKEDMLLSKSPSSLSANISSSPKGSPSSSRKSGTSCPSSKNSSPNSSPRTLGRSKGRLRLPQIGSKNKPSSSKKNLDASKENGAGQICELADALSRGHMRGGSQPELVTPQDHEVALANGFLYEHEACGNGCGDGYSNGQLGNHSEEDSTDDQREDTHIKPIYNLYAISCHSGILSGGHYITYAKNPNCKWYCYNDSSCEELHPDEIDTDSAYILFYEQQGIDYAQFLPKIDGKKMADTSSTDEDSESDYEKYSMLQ

In the case of `N#CN1CCC(NC(=O)c2cc(-c3ccccc3Oc3ccccc3)n[nH]2)C1` (centres unmarked) [FT385, FT3967385], the IC50 on USP30 was ~1 nM. For the same molecule, the “DUB profiler selectivity panel (Ubiquigent) at 2, 20 and 200 nM” value at USP6 is given as “Only one other family member, the plasma membrane–associated USP6, showed a significant degree of inhibition”.

As a reminder, the IC50 is the point on the concentration scale where inhibition reaches its midpoint. A high value points to weaker potency in that assay.
